Measured values taken from US8304448B2, “Method for the treatment of metabolic disorder containing benzazole derivatives as an active ingredient” (Korea Research Institute of Bioscience and Biotechnology, priority 2006, dated 2012).

Tests used:
DGAT [1] = test: Assay for inhibitory effect on DGAT in cell (intracellular triglyceride production from [14C]acetate in HepG2 cells); assay type: cell-based, human; conditions: final level 10 μM, DMSO control given as 100
Protocol: The effect of the benzazole derivatives of Chemical Formula 1 in accordance with the present invention on DGAT was examined with HepG2 cells, hepatic cells derived from the human liver, as follows.
HepG2 cells, purchased from ATCC, were cultured in Eagle's minimum essential medium (MEM), 2 mM L-glutamine, with Earle's balanced salt solution (BSS) adjusted to contain, 1.5 g/L sodium bicarbonate, 0.1 mM non-essential amino acids and 1 mM sodium pyruvate, supplemented with 10% fetal bovine serum (FBS) and 1% antibiotics (100 U/ml penicillin and 100 µg/ml streptomycin) at 37° C. in a 5% CO2 incubator.
Intracellular DGAT activity was represented by the amount of triglycerides produced in the cultured HepG2 cells while the compounds (4, 8, 10, 22, 24, 25, 26, 39 and 31) of Chemical Formula 1 were assayed for inhibitory activity against DGAT by measuring the change in intracellular triglyceride production after the addition thereof.
Cells were plated at a density of 1×10^6 cell/ml per well into 24-well plates and incubated for 24 hours. Then, the medium was exchanged with FBS-free MEM and pre-treated with samples for 1 hour. Thereafter, 0.2 mCi of [^14C]acetate (Amersham) was added as a substrate to the cells, followed by incubation for 1 hour. The production of triglyceride was catalyzed by DGAT so that DGAT activity was determined by the amount of the triglyceride product, which could be measured by radioactivity. For use, the samples were dissolved in dimethyl sulfoxide (DMSO). In a control, triglycerides were synthesized using DMSO without any sample, with the production yield thereof given as 100.
The amount of the glyceride products synthesized was determined as follows. After completion of synthesis, the cells were suspended in PBS (phosphate-buffer-saline) to remove the substrate [^14C]acetate, whether unabsorbed into the cells or remaining unreacted, and total lipids, including triglycerides, were extracted twice for 30 min with 0.5 ml of an extraction solvent mixture (hexane:isopropanol=3:2, v:v). 1 ml of the extract was concentrated with nitrogen gas.
The total lipid residue thus formed was dissolved in an organic solvent mixture (chloroform:methanol=2:1) and loaded dropwise onto a thin layer chromatography plate (TLC; silica gel 60F254, 0.5 mm, Merck) using a mixture of 80:20:1 hexane:diethylether:acetic acid (v:v:v) as a developing solvent. After the separation of triglycerides (Rf value: 0.4) on TLC, the plate was brought into contact with an autoradiographic film for three hours, followed by image analysis (BAS-1500, Fuji Photo Film Co. Ltd.) to determine the [^14C] radioactivity of the triglycerides. The cells left after the extraction were suspended in 0.3 ml of a 0.1 N sodium hydroxide solution to measure the cellular protein concentration thereof.
The empirical values were obtained by dividing triglyceride radioactivity by protein level, with correction for experimental errors between test groups.

SPF ICR mice = test: Acute toxicity, single oral dose of 2,000 mg/kg, mice; assay type: in vivo
Protocol: In addition, the compounds of the present invention were orally administered once at a dose of as high as 2,000 mg/kg into mice. In this regard, 7-week-old male SPF ICR mice (Dae Han Biolink Co. Ltd.) were acclimated to a new environment for one week and they, thus 8 weeks old, were divided into two groups of three. The test group was orally administered once with a dose of 2 g/kg of Compound 10 in a 0.5% CMC solution, while the control was administered with a 0.5% CMC (carboxymethyl cellulose) solution alone. They were monitored for death, clinical signs, change in body weight and the like for a couple of weeks. Autopsies were performed to examine the abnormality of organs.
Therefore, the compounds of the present invention exert no oral acute toxicity on mice even when administered once at a dose of up to 2,000 mg/kg.

DGAT [2] = test: Assay for inhibitory activity against DGAT ([14C]triacylglycerol formation, rat microsomal protein); assay type: biochemical; conditions: 25 μM; rat microsomal protein as enzyme source

NS(=O)(=O)c1ccc2oc(COc3ccc(Cl)cc3Cl)nc2c1 [Cpd. 10, 2-(2,4-dichloro-phenoxymethyl)-benzoxazole-5-sulfonic acid amide]
Production Yield of Triglyceride (%) (DGAT [1]): 98.7 ± 6.3% | Mortality (SPF ICR mice; single oral 2 g/kg in 0.5% CMC, No. of Dead/No of Tested): 0/3 | Body Weight (g) Day 0 (SPF ICR mice; single oral 2 g/kg, Day 0, Mean ± SD): 35 ± 0.5 g | Body Weight (g) Day 1 (SPF ICR mice; single oral 2 g/kg, Day 1, Mean ± SD): 37 ± 0.5 g | Body Weight (g) Day 3 (SPF ICR mice; single oral 2 g/kg, Day 3, Mean ± SD): 37 ± 0.6 g | Body Weight (g) Day 7 (SPF ICR mice; single oral 2 g/kg, Day 7, Mean ± SD): 39 ± 1.6 g | Body Weight (g) Day 14 (SPF ICR mice; single oral 2 g/kg, Day 14, Mean ± SD): 42 ± 0.8 g | DGAT (% inhibition in 25 μM) (DGAT [2]): 17.43%
